Assay results published in patent US4053604A (priority 1975, dated 1977).
Where “and” joins values, the source holds several entries; their conditions need not be identical. Equal entries are not always repeated. Entries after “also recorded” stand apart in the source; their conditions may differ.

Experiments:
[1] = in words; cited from earlier work
[2] = anesthesia time of rats exposed to halothane anesthesia (recovery of righting reflex); assay type: in vivo, male albino rats (Sprague-Dawley)
Experimental: The effects of Compound I on halothane-induced anesthesia were assessed using 20 rats for each dose or time interval determination. The experiments were performed on male albino rats (Sprague-Dawley) weighing from 180-220 g. A schematic representation of the apparatus used is illustrated in FIG. 1. The apparatus consists of a rectangular box made of transparent plastic (115 cm long × 28 cm high × 28 cm wide) which is divided into 4 equal chambers by perforated walls. The box rotates around a hollow axis through which gases can be delivered at several proportions from cylinders, through their respective flowmeters. An in-line halothane vaporizer is placed just before the gases reach the chambers. There is an air-tight door to every chamber through which two animals, one treated and one control, are introduced. The gases are delivered at one end of the box and suction is applied to the other end to take up the gases after flowing through the chambers. An in-line water manometer monitors the resulting pressure. This pressure is kept at 0-5 mm H2 O to make certain the gases in the anesthetic chambers remain at atmospheric pressure. The mixture of gases is delivered at a rate of 15 l/min. The inhalation anesthetic gases are delivered for ten minutes prior to the introduction of the animals into the chambers to assure an even distribution in the four chambers. The chambers rotate at four rev/min forcing the animals to tumble and allowing the experimenter to accurately time the loss and recovery of the righting reflex. Induction times are recorded as the time interval elapsed between the beginning of exposure of the animals to the gases and the moment in which they lose their righting reflex.
Groups of control animals (four at a time) were subjected to halothane concentrations ranging from 0.5 to 2.5% in a mixture of 95% O2 -5% CO2, and the induction times thus obtained were used to calculate concentration-reponse curves. Since a certain time elapsed between putting the first and the last rat into their respective chambers, each animal was timed separately with a stopwatch. […] This intermediate concentration of halothane was then used to study the effects of increasing doses of the test compound on the induction times and anesthesia times.
The animals were pretreated by administering the test compounds in dosages ranging from 10 to 500 μg/kg, i.v., at 5, 30, 60, 120, 240 and 360 minutes prior to their exposure to halothane. As soon as all animals lost their righting reflex, the O2 -halothane flow was discontinued and replaced by an equal flow of air. The animals were allowed to remain in the rotating chambers until they regained their righting reflex. Anesthesia times were determined as the interval between the time required to lose and the time to regain the righting reflex. Air flushing of the anesthetic chambers was performed after each determination and the entire procedure repeated with another group of animals for the determination of the effect of a new dose or concentration.
Drugs used in this study include: droperidol, phenoperidine hydrochloride, halothane and Compound I in the form of its hydrochloride salt. Phenoperidine hydrochloride and Compound I (hydrochloride) were dissolved separately in a warm solution of 0.9% sodium chloride. Droperidol was suspended in saline with the aid of a drop ot Tween 80 (Tween 80 is a registered trademark for a complex mixture of polyoxyethylene ethers of mixed partial oleic esters of sorbitol anhydride). Dosages are expressed in this study as the salt form of the compound where applicable. When the experimental protocol called for the concomitant administration of two drugs, these were mixed in the syringe and administered intravenously. The drugs were injected in a volume of 0.1 ml/100 g body weight.
The statistical analysis of the data was performed using Student's […]. […]

[3] = behavioral changes and side effects in cebus monkeys; assay type: in vivo; conditions: for Behavioral Changes / Side Effects / Duration / Onset / time of onset of side effect (Extrapyramidal): individual monkey

## CC(C)[C@@]1(O)CCN2C[C@@H]3c4ccccc4CCc4cccc(c43)[C@H]2C1 [Compound 1, (+)(4a,13b-trans)-(3-hydroxy,13b-trans)-3-isopropyl-2,- 3,4,4a,8,9,13b,14-octahydro-lH-benzo[6,7]cyclohepta[1,2,3-de]pyrido[2,1-a]isoquinolin-3-ol]
[1]
  neuroleptic potency: potent neuroleptic agent
[2]; 10 μg/kg i.v., 5 min before 0.75% halothane
  Anesthesia time, treated: 3.67 min
[2]; 10 μg/kg i.v., 5 min before 1.0% halothane
  Anesthesia time, treated: 3.16 min
[2]; 10 μg/kg i.v., 5 min before 1.5% halothane
  Anesthesia time, treated: 3.84 min
[2]; 10 μg/kg i.v., 5 min before 2.0% halothane
  Anesthesia time, treated: 4.68 min
[2]; 10 μg/kg i.v., 5 min before 2.5% halothane
  Anesthesia time, treated: 5.42 min
[2]; 25 μg/kg i.v., 5 min before 0.75% halothane
  Anesthesia time, treated: 3.78 min
[2]; 25 μg/kg i.v., 5 min before 1.0% halothane
  Anesthesia time, treated: 3.62 min
[2]; 25 μg/kg i.v., 5 min before 1.5% halothane
  Anesthesia time, treated: 4.61 min
[2]; 25 μg/kg i.v., 5 min before 2.0% halothane
  Anesthesia time, treated: 5.09 min
[2]; 25 μg/kg i.v., 5 min before 2.5% halothane
  Anesthesia time, treated: 5.26 min
[2]; 50 μg/kg i.v., 5 min before 0.75% halothane
  Anesthesia time, treated: 5.16 min
[2]; 50 μg/kg i.v., 5 min before 1.0% halothane
  Anesthesia time, treated: 4.67 min
[2]; 50 μg/kg i.v., 5 min before 1.5% halothane
  Anesthesia time, treated: 4.59 min
[2]; 50 μg/kg i.v., 5 min before 2.0% halothane
  Anesthesia time, treated: 4.49 min
[2]; 50 μg/kg i.v., 5 min before 2.5% halothane
  Anesthesia time, treated: 4.96 min
[2]; 100 μg/kg i.v., 5 min before 0.75% halothane
  Anesthesia time, treated: 6.33 min
[2]; 100 μg/kg i.v., 5 min before 1.0% halothane
  Anesthesia time, treated: 5.34 min
[2]; 100 μg/kg i.v., 5 min before 1.5% halothane
  Anesthesia time, treated: 4.79 min
[2]; 100 μg/kg i.v., 5 min before 2.0% halothane
  Anesthesia time, treated: 5.49 min
[2]; 100 μg/kg i.v., 5 min before 2.5% halothane
  Anesthesia time, treated: 5.62 min
[2]; 200 μg/kg i.v., 5 min before 0.75% halothane
  Anesthesia time, treated: 6.54 min
[2]; 200 μg/kg i.v., 5 min before 1.0% halothane
  Anesthesia time, treated: 5.37 min
[2]; 200 μg/kg i.v., 5 min before 1.5% halothane
  Anesthesia time, treated: 4.94 min
[2]; 200 μg/kg i.v., 5 min before 2.0% halothane
  Anesthesia time, treated: 5.33 min
[2]; 200 μg/kg i.v., 5 min before 2.5% halothane
  Anesthesia time, treated: 5.89 min
[2]; 250 μg/kg i.v., 5 min before 0.75% halothane
  Anesthesia time, treated: 6.26 min
[2]; 250 μg/kg i.v., 5 min before 1.0% halothane
  Anesthesia time, treated: 5.81 min
[2]; 250 μg/kg i.v., 5 min before 1.5% halothane
  Anesthesia time, treated: 5.52 min
[2]; 250 μg/kg i.v., 5 min before 2.0% halothane
  Anesthesia time, treated: 5.92 min
[2]; 250 μg/kg i.v., 5 min before 2.5% halothane
  Anesthesia time, treated: 6.37 min
[2]; 500 μg/kg i.v., 5 min before 1.0% halothane
  Anesthesia time, treated: 5.69 min
[2]; five minutes after i.v. administration, 1% halothane
  increase of anesthesia time: approximately 70%
[2]; halothane, in words
  effect on anesthesia time: increased considerably
[2]; plus 25 μg/kg i.v. phenoperidine hydrochloride, 1% halothane (FIG. 3), in words
  duration of anesthesia effect with added analgesic: potentiates the duration of anesthesia effect
[3]; Compound 1, 5 μg/kg i.v.
  Behavioral Changes: None
  Side Effects: None
[3]; Compound 1, 10 μg/kg i.v.
  Behavioral Changes: Passive; also recorded: Huddle
  Duration: 3 h and > 4 h and 2 h
  Onset: 30 min and 20 min and 15 min and 60 min
  Side Effects: None
[3]; Compound 1, 20 μg/kg i.v.
  Behavioral Changes: Passive-Huddle
  Duration: 4 h and > 5 h and 3 h
  Onset: 20 min and 15 min
  Side Effects: None
[3]; Compound 1, 50 μg/kg i.v.
  Behavioral Changes: Huddle
  Duration: > 4 h
  Onset: 20 min and 10 min
  Side Effects: Extrapyramidal and None
  time of onset of side effect (Extrapyramidal): 30 min and 40 min
[3]; Compound 1, 100 μg/kg i.v.
  Behavioral Changes: Huddle
  Duration: > 24 h
  Onset: 10 min and 5 min
  Side Effects: Extrapyramidal
  time of onset of side effect (Extrapyramidal): 15 min and 10 min
[3]; i.v.
  doses at which signs of excitomotor agitation (extrapyramidal excitation) were observed: 0.05 to 0.1 mg/kg
[3]; in words
  eliciting behavioral changes: effective in eliciting behavioral changes at very small doses
